Experiments:
Assay type in all cases: biochemical
[1] = test system: Alexa488-O-dA4P, FAM-Alexa532-O-dG4P, FAM-Alexa594-O-dT4P, Alexa633-O-dC4P; assay: Screening: rate with set of four nucleotide analogues; details: four analogues at 10 μM each, 1 mM MnCl2
A633dC4P = assay: Screening: rate with A633dC4P and dA, dG, dTTP; details: for Rate High: 25 μM A633dC4P with 20 μM dA; for Ratio (Low/High): (rate at 5 μM A633dC4P)/(rate at 25 μM A633dC4P), each with 20 μM dA, 1 mM MnCl2, higher ratio = lower Km
[2] = test system: A488dA4P, A633dC4P, A546dG4P, A594dT4P; assay: Assay with four terminally labeled nucleotide analogs; details: four terminally labeled analogs all at 10 μM
Method: Polymerization rate (bases/min) with four analogues at 10 μM (A488dA4P, A633dC4P, A546dG4P and A594dT4P) and circular template (AGTC, a 72mer circular template largely consisting of a repeating AGTC motif) is determined.
The procedure is basically as described above in the section entitled “Assay with a single analogue at low concentration (10 μM) and three native nucleotides,” with the exception that in this assay all nucleotides are terminally labeled (A488dA4P, A633dC4P, A546dG4P, A594dT4P all at 10 μM). See, e.g., Table 2 Column I.

A488dC4P [3] = assay: Assay with a single analogue at low concentration (10 μM) and three native nucleotides, A488dC4P; details: single analogue at 10 μM and three native nucleotides
Method: (§1) The Φ29 DNA polymerase (parental enzyme or mutant) was preincubated with DNA template (72 nucleotide circular DNA including mostly repetitive sequence AGTC) with annealed DNA primer. The preincubation mix includes three native nucleotides (dTTP, dATP and dGTP) and a terminal labeled nucleotide analogue (A488dC4P or A568dC4P) at 10 μM concentration. After a short preincubation, the reaction was started with MnCl2. The reaction was stopped with EDTA, and the products were separated using agarose gel electrophoresis and stained with SYBR Gold (Invitrogen). The average length of the DNA generated with DNA polymerase was determined and used to estimate the polymerization rate. See, e.g., Table 2 Columns G and H.

dTTP, dATP, dGTP = assay: Assay with three native nucleotides (dGTP, dTTP and dATP); details: three native nucleotides at 20 μM; circular template, no G residues
Method: as §1
The Φ29 DNA polymerase (parental enzyme or mutant) was preincubated with DNA template (circular DNA including mostly repetitive sequence CAT, no G residues) with annealed DNA primer; the preincubation mix includes three native nucleotides (dTTP, dATP and dGTP). All subsequent steps were basically as described above in the section entitled “Assay with a single analogue at low concentration (10 μM) and three native nucleotides.” See, e.g., Table 2 Column B.

[4] = test system: DNA template (72 nucleotide circular DNA) with annealed DNA primer; assay: Processivity assay; details: dNTP, MnCl2, heparin trap, 20 min; 1.0 minus Poff
From the text: The processivity (dissociation/kb) of the polymerase is estimated in a primer extension reaction performed in the presence of “Trap” (unlabeled competitor DNA or heparin). The processivity assay is designed to select mutants that retain the capability to synthesize a long DNA product in a continuous polymerization run (without polymerization reinitiation) with natural nucleotides. Mutants with a significant decrease in processivity are not selected for the next step.
The Φ29 DNA polymerase (parental enzyme or mutant) was preincubated with DNA template (72 nucleotide circular DNA including mostly repetitive sequence AGTC) with annealed DNA primer. After a short preincubation, the reaction was started with a starting mix including MnCl2, dNTP and heparin. Including the heparin in the reaction prevents polymerization from reinitiating after the polymerase dissociates from the template/primer, so that all generated DNA products are a result of continuous polymerization runs. After 20 min incubation, the reaction was stopped with EDTA and the products were separated using agarose gel electrophoresis and stained with SYBR Gold (Invitrogen). The DNA products were analyzed basically as described in Bibillo A, Eickbush T H. J Biol Chem. 2002 Sep. 20; 277(38):34836-45, Epub 2002 Jul. 5. The results were fitted with single exponential equation A*exp(−Poff*kb) where A is amplitude, Poff is the probability of premature polymerase dissociation, and kb is DNA length (1000 nucleotides). The probability of chain elongation (processivity) can be readily calculated by subtracting the Poff value from 1.0. See, e.g., Table 2 Column J.

A568dC4P [5] = assay: Nucleotide analogue concentration dependence of the polymerization rate, A568dC4P; details: circular AGTC template; dTTP, dATP, dGTP 20 μM each
Method: (§2) The most promising polymerase mutants are characterized by determination of the polymerization rate and Km for A488dC4P and A568dC4P and a subset of natural nucleotides (dATP, dGTP and dTTP), using a circular template (AGTC). Velocity is measured at several different concentrations of the analogs, A488dC4P (a representative good substrate) and A568dC4P (a representative less preferred substrate).
(§3) The Φ29 DNA polymerase (parental enzyme or mutant) was preincubated with a DNA template (72 nucleotide circular DNA including mostly repetitive sequence AGTC) with annealed DNA primer. The preincubation mix includes also three native nucleotides (dTTP, dATP and dGTP 20 μM each) and various concentrations of the terminally labeled analogue (A488dC4P or A568dC4P). All subsequent steps were basically as described above in the section entitled “Assay with a single analogue at low concentration (10 μM) and three native nucleotides.” An average length of the DNA products generated with DNA polymerase at an individual analogue concentration was determined, and the results were fitted with the equation k=kel*[S]*(Kd+[S])^−1 where k is the observed polymerization rate, kel is the polymerization rate at saturating substrate concentration (kel measures incorporation of multiple residues), and [S] is substrate concentration. See, e.g., Table 2 Columns C, D, E, and F.

A488dC4P [6] = assay: Nucleotide analogue concentration dependence of the polymerization rate, A488dC4P; details: circular AGTC template; dTTP, dATP, dGTP 20 μM each
Method: as §2, §3

A568dC4P [7] = assay: Assay with a single analogue at low concentration (10 μM) and three native nucleotides, A568dC4P; details: single analogue at 10 μM and three native nucleotides
Method: as §1

[8] = test system: natural (native) nucleotides; assay: Initial characterization: specific activity with natural (native) nucleotides
Method: The recombinant polymerase is initially evaluated on the quality of the protein preparation and basic catalytic activity. The polymerase's activity is analyzed with natural (native) nucleotides, and its specific activity (units/mg) is determined. Only catalytically competent mutants are selected for the next steps.

Alexa633-O-dC4P = assay: Km and Vmax versus analogue Alexa633-O-dC4P; details: Alexa633-O-dC4P (A633dC4P)
Method: Km and Vmax were determined for exemplary recombinant Phi29 polymerases and various nucleotide analogues.

Substance | Hz Rate [1] [Hz] | Rate High (A633dC4P) | Ratio (Low/High) (A633dC4P) | A488dA4P, A633dC4P, A546dG4P, A594dT4P, V at 10 μM [2] | A488dC4P, V at 10 μM (A488dC4P [3]) | dTTP, dATP, dGTP (no G fork) V at 20 μM (dTTP, dATP, dGTP) | Processivity [4] [kb^−1] | A568dC4P, kel (A568dC4P [5]) | Km (A568dC4P [5]) [µM] | A488dC4P, kel (A488dC4P [6]) [bp/min] | Km (A488dC4P [6]) [µM] | A568dC4P, V at 10 μM (A568dC4P [7]) | Specific Activity [8] | Km (Alexa633-O-dC4P) [µM]
D12A: GST-His tagged Phi29 polymerase with exonuclease-reducing D12A mutation, no background mutation [reference compound] | 1.2 | 55.3 | 0.888 | – | – | – | – | – | – | – | – | – | – | –
E375A: His-tagged Phi29 polymerase with E375A and background N62D mutation | 5.8 | 465.9 | 0.383 | – | – | – | – | – | – | – | – | – | – | –
E375Q: His-tagged Phi29 polymerase with E375Q and background N62D mutation | 6.3 | 531.6 | 0.356 | – | – | – | – | – | – | – | – | – | – | –
GST-N62D: GST-His-S tagged Phi 29 DNA polymerase with exonuclease-reducing N62D mutation (SEQ ID NO:2); parental enzyme [reference compound] | 2.8 | 349.3 | 0.355 | 65 | 346 | 780 | 0.9799 | 1660 | 74 | 1200 | 20 | 236 | – | –
His-E486A-N62D: His-tagged Phi 29 polymerase with E486A and N62D mutations (SEQ ID NOs:9, 30) | 1.0 | 152.5 | 0.441 | 15 | 303 | 1690 | 0.9875 | – | – | – | – | 118 | 4,133,000 units/mg | –
His-E486D-N62D: His-tagged Phi 29 polymerase with E486D and N62D mutations (SEQ ID NOs:10, 31) | 0.9 | 142.0 | 0.467 | 15 | 220 | – | 0.9885 | – | – | – | – | 134 | 11,634,000 units/mg | –
His-K135A-N62D: His-tagged Phi 29 polymerase with K135A and N62D mutations (SEQ ID NOs:3, 24) | 1.6 | 272.0 | 0.412 | 43 | 292 | 840 | 0.9801 | – | – | 880 | 24 | 154 | 12,454,000 units/mg | –
His-K512A-N62D: His-tagged Phi 29 polymerase with K512A and N62D mutations (SEQ ID NOs:11, 32) | 1.4 | 347.7 | 0.335 | 34 | 359 | – | 0.9821 | – | – | – | – | 196 | 16,073,000 units/mg | –
His-N62D: His-tagged N62D Phi 29 DNA polymerase; parental enzyme [reference compound] | 2.7 | 373.2 | 0.362 | 68 | 391 | 750 | 0.9754 | – | – | 1020 | 21 | 237 | – | –
His-NipTuck_1-N62D: His-tagged N62D Phi 29 polymerase with deletion of residues 505-525 (SEQ ID NOs:12, 33) | 1.3 | 192.4 | 0.508 | 24 | 153 | 660 | 0.9585 | – | – | 520 | 24 | 116 | 12,400,000 units/mg | –
L384R: His-tagged Phi29 polymerase with L384R and N62D mutations (SEQ ID NOs:8, 29) | −0 | 79.6 | 0.768 | – | – | – | – | – | – | – | – | – | – | –
N62D: E375K: Phi 29 polymerase with E375K and N62D mutations (SEQ ID NOs:6, 27) | 6.2 | 516.1 | 0.425 | – | – | – | – | – | – | – | – | – | – | 12
T15I N62D: His-tagged Phi29 polymerase with T15I and background N62D mutation (Table 5 r22) | 0.0 | 105.9 | 0.726 | – | – | – | – | – | – | – | – | – | – | –
T15I: His-tagged Phi29 polymerase with T15I mutation only, no background mutation (Table 5 r13) | 3.0 | 416.5 | 0.355 | – | – | – | – | – | – | – | – | – | – | –
